Reference: patent US10308659B2, “Pyridine derivatives” (Hoffmann-La Roche Inc., priority 2013, dated 2019)
Where two headings read alike, the source gives them in different places. Values belong to the compound of their own block, whether it stands above or below them.

How the values were obtained:
human CB1 receptors = human CB1 receptors (Homo sapiens (Human), UniProt P21554); assay: cAMP assay, CHO cells expressing human CB1 receptors; type: cell-based
Experimental: (§1) CHO cells expressing human CB1 or CB2 receptors are seeded 17-24 hours prior to the experiment 50.000 cells per well in a black 96 well plate with flat clear bottom (Corning Costar #3904) in DMEM (Invitrogen No. 31331), 1×HT supplement, with 10% fetal calf serum and incubated at 5% CO2 and 37° C. in a humidified incubator. The growth medium was exchanged with Krebs Ringer Bicarbonate buffer with 1 mM IBMX and incubated at 30° C. for 30 min. Compounds were added to a final assay volume of 100 μl and incubated for 30 min at 30° C. […] The time-resolved energy transfer is measured by a TRF reader (Evotec Technologies GmbH), equipped with a ND:YAG laser as excitation source. The plate is measured twice with the excitation at 355 nm and at the emission with a delay of 100 ns and a gate of 100 ns, total exposure time 10 s at 730 (bandwidth30 nm) or 645 nm (bandwidth 75 nm), respectively. The FRET signal is calculated as follows: FRET=T730-Alexa730-P(T645-B645) with P=Ru730-B730/Ru645-B645, where T730 is the test well measured at 730 nM, T645 is the test well measured at 645 nm, B730 and B645 are the buffer controls at 730 nm and 645 nm, respectively. cAMP content is determined from the function of a standard curve spanning from 10 μM to 0.13 nM cAMP.
(§2) EC50 values were determined using Activity Base analysis (ID Business Solution, Limited).

human CB2 receptors = human CB2 receptors (Homo sapiens (Human), UniProt P34972); assay: cAMP assay, CHO cells expressing human CB2 receptors; type: cell-based
human CB2 receptors, sequence (P34972 whole entry): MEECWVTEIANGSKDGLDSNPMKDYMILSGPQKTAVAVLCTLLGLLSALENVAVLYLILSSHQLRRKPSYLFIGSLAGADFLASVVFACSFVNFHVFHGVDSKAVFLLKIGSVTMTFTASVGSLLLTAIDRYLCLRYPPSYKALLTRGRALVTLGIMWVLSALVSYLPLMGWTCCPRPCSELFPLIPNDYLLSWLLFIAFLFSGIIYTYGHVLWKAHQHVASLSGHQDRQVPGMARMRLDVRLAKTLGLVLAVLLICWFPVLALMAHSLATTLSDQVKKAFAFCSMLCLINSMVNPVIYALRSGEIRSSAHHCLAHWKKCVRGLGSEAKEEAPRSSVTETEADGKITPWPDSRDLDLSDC
Experimental: as §1, §2

[1] = functional cAMP assay, CHO cells expressing human CB1, read-out: EC50 CB1 human
[2] = functional cAMP assay, CHO cells expressing human CB2, read-out: EC50 CB2 human

human CB1 receptors, sequence (P21554 whole entry): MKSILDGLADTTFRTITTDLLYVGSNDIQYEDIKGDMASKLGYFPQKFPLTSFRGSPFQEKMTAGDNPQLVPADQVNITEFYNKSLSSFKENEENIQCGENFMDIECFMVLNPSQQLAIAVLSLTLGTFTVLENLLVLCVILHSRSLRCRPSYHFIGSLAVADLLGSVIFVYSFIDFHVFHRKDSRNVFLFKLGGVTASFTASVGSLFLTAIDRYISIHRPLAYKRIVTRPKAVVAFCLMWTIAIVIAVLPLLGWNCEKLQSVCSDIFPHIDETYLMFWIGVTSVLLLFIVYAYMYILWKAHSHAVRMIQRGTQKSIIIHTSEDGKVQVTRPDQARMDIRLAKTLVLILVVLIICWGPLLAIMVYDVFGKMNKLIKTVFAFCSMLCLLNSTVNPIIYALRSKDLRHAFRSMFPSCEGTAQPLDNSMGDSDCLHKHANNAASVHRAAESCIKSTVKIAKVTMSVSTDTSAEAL

Structure (SMILES): CCC1COC(c2cc(OCC3CC3)c(C3CC3)cn2)=N1 (stereo not shown) [Example 21, 2-[5-cyclopropyl-4-(cyclopropylmethoxy)pyridin-2-yl]-4-ethyl-4,5-dihydro-1,3-oxazole]
- EC50 (human CB1 receptors; [1]): > 10000 nM
- EC50 (human CB2 receptors; [2]): 70 nM

Structure (SMILES): CC(C)(C)c1nc(-c2cc(OCC(F)(F)F)c(Cl)cn2)no1 [Example 70, 5-tert-butyl-3-[5-chloro-4-(2,2,2-trifluoroethoxy)pyridin-2-yl]-1,2,4-oxadiazole]
- EC50 (human CB1 receptors; [1]): > 10000 nM
- EC50 (human CB2 receptors; [2]): 5.7 nM

Structure (SMILES): COCc1nc(-c2cc(OCC3CC3)c(C3CC3)cn2)no1 [Example 12, 3-[5-cyclopropyl-4-(cyclopropylmethoxy)pyridin-2-yl]-5-(methoxymethyl)-1,2,4-oxadiazole]
- EC50 (human CB1 receptors; [1]): > 10000 nM
- EC50 (human CB2 receptors; [2]): 46.6 nM

Structure (SMILES): CC(C)(C)c1nc(-c2cc(OC3CCOCC3)c(C3(F)COC3)cn2)no1 [Example 109, 5-tert-butyl-3-[5-(3-fluorooxetan-3-yl)-4-(oxan-4-yloxy)pyridin-2-yl]-1,2,4-oxadiazole]
- EC50 (human CB1 receptors; [1]): > 10000 nM
- EC50 (human CB2 receptors; [2]): 162 nM

Structure (SMILES): CC(C)(C)c1nc(-c2cc(N3CCCC3)c(C3CC3)cn2)no1 [Example 79, 5-tert-butyl-3-(5-cyclopropyl-4-pyrrolidin-1-ylpyridin-2-yl)-1,2,4-oxadiazole]
- EC50 (human CB1 receptors; [1]): > 10000 nM
- EC50 (human CB2 receptors; [2]): 9 nM

Structure (SMILES): CC(C)(C)c1cnc(-c2cc(OCC3CC3)c(C3CC3)cn2)o1 [Example 65, 5-tert-butyl-2-[5-cyclopropyl-4-(cyclopropylmethoxy)pyridin-2-yl]-1,3-oxazole]
- EC50 (human CB1 receptors; [1]): 170 nM
- EC50 (human CB2 receptors; [2]): 1.7 nM

Structure (SMILES): CC(C)(C)c1nc(-c2cc(OCc3ccccn3)c(C3CC3)cn2)no1 [Example 117, 5-tert-butyl-3-[5-cyclopropyl-4-(pyridin-2-ylmethoxy)pyridin-2-yl]-1,2,4-oxadiazole]
- EC50 (human CB1 receptors; [1]): > 10000 nM
- EC50 (human CB2 receptors; [2]): 53.9 nM

Structure (SMILES): CC(C)(C)c1c[nH]c(-c2cc(OCC(F)(F)F)c(N3CC(F)(F)C3)cn2)n1 [Example 64, 2-(5-tert-butyl-1H-imidazol-2-yl)-5-(3,3-difluoroazetidin-1-yl)-4-(2,2,2-trifluoroethoxy)pyridine]
- EC50 (human CB1 receptors; [1]): > 10000 nM
- EC50 (human CB2 receptors; [2]): 87.5 nM

- EC50 (human CB1 receptors; [1]): 768 nM
- EC50 (human CB2 receptors; [2]): 75.1 nM
Structure (SMILES): CCN1CCC(Oc2cc(-c3noc(C(C)(C)C)n3)ncc2C2CC2)C1 (stereo not shown) [Example 92, 5-tert-butyl-3-[5-cyclopropyl-4-(1-ethylpyrrolidin-3-yl)oxypyridin-2-yl]-1,2,4-oxadiazole]

Structure (SMILES): CC1(C)CN=C(c2cc(OCC(F)(F)F)c(C3CC3)cn2)O1 [Example 41, 2-[5-cyclopropyl-4-(2,2,2-trifluoroethoxy)pyridin-2-yl]-5,5-dimethyl-4H-1,3-oxazole]
- EC50 (human CB1 receptors; [1]): > 10000 nM
- EC50 (human CB2 receptors; [2]): 53.9 nM

Structure (SMILES): NC(=O)C1(c2nc(-c3cc(OCC4CC4)c(C4CC4)cn3)no2)CC1 [Example 25, 1-[3-[5-cyclopropyl-4-(cyclopropylmethoxy)pyridin-2-yl]-1,2,4-oxadiazol-5-yl]cyclopropane-1-carboxamide]
- EC50 (human CB1 receptors; [1]): > 10000 nM
- EC50 (human CB2 receptors; [2]): 135 nM

Structure (SMILES): CC(C)(C)[C@H]1COC(c2cc(OCC3CC3)c(C3CC3)cn2)=N1 [Example 20, (4S)-4-tert-butyl-2-[5-cyclopropyl-4-(cyclopropylmethoxy)pyridin-2-yl]-4,5-dihydro-1,3-oxazole]
- EC50 (human CB1 receptors; [1]): > 10000 nM
- EC50 (human CB2 receptors; [2]): 3.7 nM

Structure (SMILES): CC(C)(C)c1noc(-c2cc(OCC(F)(F)F)c(C3CC3)cn2)n1 [Example 40, 3-tert-butyl-5-[5-cyclopropyl-4-(2,2,2-trifluoroethoxy)pyridin-2-yl]-1,2,4-oxadiazole]
- EC50 (human CB1 receptors; [1]): > 10000 nM
- EC50 (human CB2 receptors; [2]): 2.2 nM

Structure (SMILES): COCC(C)Oc1cc(-c2noc(C(C)(C)C)n2)ncc1C1CC1 (stereo not shown) [Example 87, 5-tert-butyl-3-[5-cyclopropyl-4-(1-methoxypropan-2-yloxy)pyridin-2-yl]-1,2,4-oxadiazole]
- EC50 (human CB1 receptors; [1]): > 10000 nM
- EC50 (human CB2 receptors; [2]): 113 nM

Structure (SMILES): Cc1noc(-c2cc(OCC3CC3)c(C3CC3)cn2)n1 [Example 1, 5-[5-cyclopropyl-4-(cyclopropylmethoxy)pyridin-2-yl]-3-methyl-1,2,4-oxadiazole]
- EC50 (human CB1 receptors; [1]): > 10000 nM
- EC50 (human CB2 receptors; [2]): 25.7 nM

Structure (SMILES): CCC1(CC)COC(c2cc(OCC3CC3)c(C3CC3)cn2)=N1 [Example 11, 2-[5-cyclopropyl-4-(cyclopropylmethoxy)pyridin-2-yl]-4,4-diethyl-5H-1,3-oxazole]
- EC50 (human CB1 receptors; [1]): > 10000 nM
- EC50 (human CB2 receptors; [2]): 0.6 nM

Structure (SMILES): c1c(-c2noc(C3CC3)n2)ncc(C2CC2)c1OCC1CC1 [Example 9, 5-cyclopropyl-3-[5-cyclopropyl-4-(cyclopropylmethoxy)pyridin-2-yl]-1,2,4-oxadiazole]
- EC50 (human CB1 receptors): > 10000 nM
- EC50 (human CB2 receptors): 15.8 nM

Structure (SMILES): CC(C)(C)c1nc(-c2cc(OCC(F)F)c(C3CC3)cn2)no1 [Example 115, 5-tert-butyl-3-[5-cyclopropyl-4-(2,2-difluoroethoxy)pyridin-2-yl]-1,2,4-oxadiazole]
- EC50 (human CB1 receptors; [1]): > 10000 nM
- EC50 (human CB2 receptors; [2]): 2 nM

Structure (SMILES): CC(C)(C)c1nc(-c2cc(OCC(F)(F)F)c(C3CC3)cn2)no1 [Example 33, 5-tert-butyl-3-[5-cyclopropyl-4-(2,2,2-trifluoroethoxy)pyridin-2-yl]-1,2,4-oxadiazole]
- EC50 (human CB1 receptors): > 10000 nM
- EC50 (human CB2 receptors): 6.9 nM

Structure (SMILES): CC(C)(C)c1noc(-c2cc(OCC3CC3)c(C3CC3)cn2)n1 [Example 6, 3-tert-butyl-5-[5-cyclopropyl-4-(cyclopropylmethoxy)pyridin-2-yl]-1,2,4-oxadiazole]
- EC50 (human CB1 receptors; [1]): 9.2 nM
- EC50 (human CB2 receptors; [2]): 1 nM

Structure (SMILES): CC1(c2nc(-c3cc(OCC4CC4)c(C4CC4)cn3)no2)COC1 [Example 28, 3-[5-cyclopropyl-4-(cyclopropylmethoxy)pyridin-2-yl]-5-(3-methyloxetan-3-yl)-1,2,4-oxadiazole]
- EC50 (human CB1 receptors; [1]): > 10000 nM
- EC50 (human CB2 receptors; [2]): 16 nM

Structure (SMILES): CC(C)CC1(C)N=C(c2cc(OCC(F)(F)F)c(C3CC3)cn2)NC1=O (stereo not shown) [Example 69, 2-[5-cyclopropyl-4-(2,2,2-trifluoroethoxy)pyridin-2-yl]-4-methyl-4-(2-methylpropyl)-1H-imidazol-5-one]
- EC50 (human CB1 receptors; [1]): > 10000 nM
- EC50 (human CB2 receptors; [2]): 9 nM

Structure (SMILES): CN1CCC[C@H]1COc1cc(-c2noc(C(C)(C)C)n2)ncc1C1CC1 [Example 57, 5-tert-butyl-3-[5-cyclopropyl-4-[[(2S)-1-methylpyrrolidin-2-yl]methoxy]pyridin-2-yl]-1,2,4-oxadiazole]
- EC50 (human CB1 receptors; [1]): > 10000 nM
- EC50 (human CB2 receptors; [2]): 13.4 nM

Structure (SMILES): C[C@@H](Oc1cc(-c2nc(C(C)(C)C)no2)ncc1C1CC1)C(F)(F)F [Example 51, 3-tert-butyl-5-[5-cyclopropyl-4-[(2R)-1,1,1-trifluoropropan-2-yl]oxypyridin-2-yl]-1,2,4-oxadiazole]
- EC50 (human CB1 receptors; [1]): > 10000 nM
- EC50 (human CB2 receptors; [2]): 61.8 nM

Structure (SMILES): CC(C)(C)c1noc(-c2cc(OCC(F)(F)F)c(N3CC(F)(F)C3)cn2)n1 [Example 17, 3-tert-butyl-5-[5-(3,3-difluoroazetidin-1-yl)-4-(2,2,2-trifluoroethoxy)pyridin-2-yl]-1,2,4-oxadiazole]
- EC50 (human CB1 receptors; [1]): > 10000 nM

Structure (SMILES): CC(C)(C)c1nc(-c2cc(N3CCC4(COC4)C3)c(C3CC3)cn2)no1 [Example 76, 7-[2-(5-tert-butyl-1,2,4-oxadiazol-3-yl)-5-cyclopropylpyridin-4-yl]-2-oxa-7-azaspiro[3.4]octane]
- EC50 (human CB1 receptors; [1]): > 10000 nM

Structure (SMILES): CC1(c2nc(-c3cc(OCC(F)(F)F)c(C4CC4)cn3)no2)CC1 [Example 34, 3-[5-cyclopropyl-4-(2,2,2-trifluoroethoxy)pyridin-2-yl]-5-(1-methylcyclopropyl)-1,2,4-oxadiazole]
- EC50 (human CB1 receptors; [1]): > 10000 nM

Structure (SMILES): CC(C)(C)c1nc(-c2cc(OCC3COCCN3)c(C3CC3)cn2)no1 (stereo not shown) [Example 102, 3-[[2-(5-tert-butyl-1,2,4-oxadiazol-3-yl)-5-cyclopropylpyridin-4-yl]oxymethyl]morpholine]
- EC50 (human CB1 receptors; [1]): > 10000 nM

Structure (SMILES): CC(C)(O)c1nc(-c2cc(OCC3CC3)c(C3CC3)cn2)no1 [Example 26, 2-[3-[5-cyclopropyl-4-(cyclopropylmethoxy)pyridin-2-yl]-1,2,4-oxadiazol-5-yl]propan-2-ol]
- EC50 (human CB1 receptors; [1]): > 10000 nM

Structure (SMILES): CC(C)(C)c1nnc(-c2cc(OCC(F)(F)F)c(C3CC3)cn2)o1 [Example 113, 2-tert-butyl-5-[5-cyclopropyl-4-(2,2,2-trifluoroethoxy)pyridin-2-yl]-1,3,4-oxadiazole]
- EC50 (human CB1 receptors; [1]): > 10000 nM

Structure (SMILES): CC(C)(C)c1nc(-c2cc(OCc3ccc(F)cc3)c(C3CC3)c(Cl)n2)no1 [Example 112, 5-tert-butyl-3-(6-chloro-5-cyclopropyl-4-(4-fluorobenzyloxy)pyridin-2-yl)-1,2,4-oxadiazole]
- EC50 (human CB1 receptors; [1]): 73.2 nM

Structure (SMILES): FC(F)(F)COc1cc(-c2nc(C3CC3)no2)ncc1C1CC1 [Example 7, 3-cyclopropyl-5-[5-cyclopropyl-4-(2,2,2-trifluoroethoxy)pyridin-2-yl]-1,2,4-oxadiazole]
- EC50 (human CB1 receptors; [1]): > 10000 nM

Structure (SMILES): CC(C)(C)c1nc(-c2cc(OCC(F)(F)F)c(N3CC(F)(F)C3)cn2)no1 [Example 44, 5-tert-butyl-3-[5-(3,3-difluoroazetidin-1-yl)-4-(2,2,2-trifluoroethoxy)pyridin-2-yl]-1,2,4-oxadiazole]
- EC50 (human CB1 receptors; [1]): > 10000 nM

Structure (SMILES): c1c(C2=NC3(CCCCC3)CO2)ncc(C2CC2)c1OCC1CC1 [Example 22, 2-[5-cyclopropyl-4-(cyclopropylmethoxy)pyridin-2-yl]-3-oxa-1-azaspiro[4.5]dec-1-ene]
- EC50 (human CB2 receptors; [2]): 4.2 nM
